This is an account of results in ChEMBL document CHEMBL1128130, “Hydroxamate inhibitors of human gelatinase B (92 kDa)” (Bioorg Med Chem Lett, 1995).

For one assay, the target named is Stromelysin-1 (Homo sapiens, UniProt P08254).
Assay [1] deals with Matrix metalloproteinase-9 (Homo sapiens, UniProt P14780).
Description: Inhibition of human Matrix metalloprotease-9
In the next assay the target is T1, Interstitial collagenase (Homo sapiens, UniProt P03956).
T1 sequence (P03956 whole entry): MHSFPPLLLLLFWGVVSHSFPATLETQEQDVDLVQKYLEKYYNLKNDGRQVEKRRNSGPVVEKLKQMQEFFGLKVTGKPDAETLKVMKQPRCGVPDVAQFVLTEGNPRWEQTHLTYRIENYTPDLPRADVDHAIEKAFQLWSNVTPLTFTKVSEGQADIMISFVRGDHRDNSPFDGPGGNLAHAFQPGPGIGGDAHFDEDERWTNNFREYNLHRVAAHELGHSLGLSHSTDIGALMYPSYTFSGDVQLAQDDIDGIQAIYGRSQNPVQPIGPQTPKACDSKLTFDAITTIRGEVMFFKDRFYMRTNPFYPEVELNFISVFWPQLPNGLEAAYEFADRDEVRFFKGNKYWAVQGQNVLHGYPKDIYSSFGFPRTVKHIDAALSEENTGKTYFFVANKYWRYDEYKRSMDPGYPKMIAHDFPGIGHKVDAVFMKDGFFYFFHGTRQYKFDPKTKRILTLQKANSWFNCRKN

The next assay has as its target Neutrophil collagenase (Homo sapiens, UniProt P22894).

Bounds are passed on as bounds.

Chain of Matrix metalloproteinase-9 (P14780 whole entry): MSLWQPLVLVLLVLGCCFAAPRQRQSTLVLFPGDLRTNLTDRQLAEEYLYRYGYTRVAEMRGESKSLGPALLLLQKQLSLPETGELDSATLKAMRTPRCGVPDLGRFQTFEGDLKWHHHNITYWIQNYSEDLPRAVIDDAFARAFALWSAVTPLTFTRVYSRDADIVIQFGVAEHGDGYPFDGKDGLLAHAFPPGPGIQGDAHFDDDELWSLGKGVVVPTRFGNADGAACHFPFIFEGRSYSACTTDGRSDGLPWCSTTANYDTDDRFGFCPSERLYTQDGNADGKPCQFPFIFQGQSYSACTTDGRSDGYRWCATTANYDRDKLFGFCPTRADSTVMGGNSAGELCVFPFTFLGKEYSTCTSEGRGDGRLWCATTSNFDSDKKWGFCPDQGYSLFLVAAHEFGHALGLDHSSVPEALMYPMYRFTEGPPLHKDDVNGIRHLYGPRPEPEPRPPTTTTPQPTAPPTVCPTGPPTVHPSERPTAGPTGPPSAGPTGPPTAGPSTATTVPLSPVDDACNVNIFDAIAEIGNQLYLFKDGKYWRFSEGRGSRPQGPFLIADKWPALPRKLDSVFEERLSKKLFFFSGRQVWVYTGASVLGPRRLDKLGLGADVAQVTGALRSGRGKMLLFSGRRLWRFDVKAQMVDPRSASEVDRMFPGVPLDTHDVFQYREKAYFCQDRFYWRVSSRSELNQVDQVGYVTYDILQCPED
Chain of Stromelysin-1 (P08254 whole entry): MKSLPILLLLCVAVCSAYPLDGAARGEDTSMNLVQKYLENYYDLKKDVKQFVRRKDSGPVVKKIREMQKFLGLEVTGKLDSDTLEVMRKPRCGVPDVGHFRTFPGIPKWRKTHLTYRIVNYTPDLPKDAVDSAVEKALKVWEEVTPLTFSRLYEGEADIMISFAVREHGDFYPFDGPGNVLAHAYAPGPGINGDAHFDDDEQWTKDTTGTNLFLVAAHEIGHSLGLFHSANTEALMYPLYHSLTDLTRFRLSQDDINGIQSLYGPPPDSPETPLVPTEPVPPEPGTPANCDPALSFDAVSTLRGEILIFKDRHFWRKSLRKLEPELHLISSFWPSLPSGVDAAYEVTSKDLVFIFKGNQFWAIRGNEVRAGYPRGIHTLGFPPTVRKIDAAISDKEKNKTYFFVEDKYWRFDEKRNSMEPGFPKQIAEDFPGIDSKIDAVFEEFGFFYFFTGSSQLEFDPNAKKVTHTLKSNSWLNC
Chain of Neutrophil collagenase (P22894 whole entry): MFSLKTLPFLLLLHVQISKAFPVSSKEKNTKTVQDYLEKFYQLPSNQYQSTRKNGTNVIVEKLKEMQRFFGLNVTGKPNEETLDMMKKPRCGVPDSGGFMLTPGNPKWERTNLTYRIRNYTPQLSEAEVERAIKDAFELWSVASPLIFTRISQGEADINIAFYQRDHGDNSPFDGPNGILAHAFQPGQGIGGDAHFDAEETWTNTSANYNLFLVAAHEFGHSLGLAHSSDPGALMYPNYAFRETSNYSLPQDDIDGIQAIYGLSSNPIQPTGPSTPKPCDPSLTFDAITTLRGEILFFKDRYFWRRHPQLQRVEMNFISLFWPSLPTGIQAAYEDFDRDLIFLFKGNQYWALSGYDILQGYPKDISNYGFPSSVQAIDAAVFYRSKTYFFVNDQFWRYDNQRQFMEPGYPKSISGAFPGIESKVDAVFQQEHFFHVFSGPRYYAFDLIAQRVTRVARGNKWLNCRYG
Description for Interstitial collagenase: Inhibition of human fibroblast collagenase, matrix metalloprotease-1
Description for Neutrophil collagenase: Inhibition of human Matrix metalloprotease-8
Description for Stromelysin-1: Inhibition of human fibroblast stromelysin, matrix metalloprotease-3

`CNC(=O)[C@H](Cc1c[nH]c2ccccc12)NC(=O)[C@@H](CC(=O)NO)CC(C)C` [ILOMASTAT] had an inhibitory constant (Ki) on Stromelysin-1 of 46 nM.
As to `CC[C@H](CC(=O)NO)C(=O)N[C@@H](Cc1c[nH]c2ccccc12)C(=O)NC`, the Ki was found to be 20 nM in assay [1], 2700 nM on Stromelysin-1, 180 nM at Interstitial collagenase and 100 nM on Neutrophil collagenase.
As for `CNC(=O)[C@H](Cc1ccccc1)NC(=O)[C@H](CCCCCOc1ccccc1)CC(=O)NO`, the Ki in assay [1] was 0.31 nM.
Compound `CCCCCc1ccc(OCCCC[C@H](CC(=O)NO)C(=O)N[C@H](C(=O)NC)C(C)(C)C)cc1` registered a Ki in assay [1] of 3.8 nM.
Still for that read-out and setting: with `CNC(=O)[C@H](Cc1ccccc1)NC(=O)[C@H](CCCCOc1ccccc1)CC(=O)NO` the figure was 1.2 nM.
`CNC(=O)[C@H](Cc1ccccc1)NC(=O)[C@H](CCCCCCc1ccccc1)CC(=O)NO`: the inhibition constant Ki is 1.3 nM in assay [1], 11 nM at Stromelysin-1, 8400 nM at Interstitial collagenase and below 2 nM on Neutrophil collagenase.
For `CNC(=O)[C@H](Cc1c[nH]c2ccccc12)NC(=O)[C@H](C)CC(=O)NO` the same measures were 500 nM, 40000 nM, 8500 nM and 4200 nM.
For `CNC(=O)CNC(=O)[C@H](CCCCOCc1ccccc1)CC(=O)NO`, the inhibition constant (Ki) in assay [1] is 5600 nM; at Stromelysin-1, 3500 nM; at Interstitial collagenase, above 100 nM; at Neutrophil collagenase it was 170 nM.
For `CNC(=O)[C@H](Cc1ccccc1)NC(=O)[C@H](CCCCOCc1ccccc1)CC(=O)NO`, in assay [1], the affinity corresponds to a Ki of 3.3 nM.
Consider `CCCCC[C@H](CC(=O)NO)C(=O)N[C@H](C(=O)N1CCCC1CO)C(C)C` (some centres undefined), for which the Ki in assay [1] came to 330 nM; at Stromelysin-1 it was 1700 nM; at Interstitial collagenase, 300 nM; on Neutrophil collagenase, 190 nM.
For the compound `CNC(=O)[C@@H](NC(=O)[C@H](CCCCOCc1ccccc1)CC(=O)NO)C(C)(C)C`, the values for the Ki (in assay [1]; on Stromelysin-1; on Neutrophil collagenase) were 11 nM, 39 nM and 4.7 nM, respectively.
On to `CNC(=O)[C@H](Cc1ccccc1)NC(=O)[C@@H](CC(=O)NO)CC(C)C`, for which, in assay [1], the Ki was found to be 1.4 nM.
